Data on four compounds can be found in BindingDB's records for doi:10.1021/jm9800245 (F. Hoffmann-La Roche, 1998).

Structures can show the parent of a compound that is named as a salt.

Assay [1] in a line: Inhibition of beta-lactamase of Escherichia coli TEM-3 […].
The target in assay [2] is Beta-lactamase AmpC (Pseudomonas aeruginosa). Kind of assay: Inhibition of beta-lactamase of Pseudomonas aeruginosa 18 SH (class C).

Consider `NC(=O)c1ccc(NC(=O)N2CC[C@@H]3C2C(=O)N3S(=O)(=O)O)cc1` (stereo partly drawn) [(2S,5R)-2-(4-Carbamoyl-phenylcarbamoyl)-7-oxo-2,6-diaza-bicyclo[3.2.0]heptane-6-sulfonic acid], for which the IC50 (as a rule, the point on the concentration scale where inhibition reaches its midpoint) in assay [1] was 9000 µM; in assay [2], 0.217 µM. On to `CC(C)(C)OC(=O)N1CC[C@@H]2C1C(=O)N2S(=O)(=O)O` (stereo partly drawn) [(2S,5R)-7-Oxo-6-sulfo-2,6-diaza-bicyclo[3.2.0]heptane-2-carboxylic acid tert-butyl ester], for which the IC50 in assay [1] is above 1000 µM; in assay [2], 1.5 µM.

For `NC(=O)c1ccc(NC(=O)N2CCC3C2C(=O)N3OS(=O)(=O)O)cc1` (configuration not stated) [sodium salt-Sulfuric acid mono-[2-(4-carbamoyl-phenylcarbamoyl)-7-oxo-2,6-diaza-bicyclo[3.2.0]hept-6-yl] ester], in assay [2], the IC50 turned out to be 0.026 µM. As for `CC(C)(C)OC(=O)N1CCC2C1C(=O)N2OS(=O)(=O)O` (configuration not stated) [sodium salt-tert-butyl 7-oxo-6-(sulfooxy)-2,6-diazabicyclo[3.2.0]heptane-2-carboxylate], the IC50 was found to be 0.165 µM in assay [1] and 0.028 µM in assay [2].
